Measured values published in BindingDB's records for doi:10.7270/Q2GQ70ZD (n/a, 1994).

molecular target: T1, Alpha-1B adrenergic receptor (Homo sapiens, UniProt P35368); assay: Binding affinity towards human Alpha-1B adrenergic receptor by the displacement of [3H]prazosin
T1 sequence (P35368 whole entry): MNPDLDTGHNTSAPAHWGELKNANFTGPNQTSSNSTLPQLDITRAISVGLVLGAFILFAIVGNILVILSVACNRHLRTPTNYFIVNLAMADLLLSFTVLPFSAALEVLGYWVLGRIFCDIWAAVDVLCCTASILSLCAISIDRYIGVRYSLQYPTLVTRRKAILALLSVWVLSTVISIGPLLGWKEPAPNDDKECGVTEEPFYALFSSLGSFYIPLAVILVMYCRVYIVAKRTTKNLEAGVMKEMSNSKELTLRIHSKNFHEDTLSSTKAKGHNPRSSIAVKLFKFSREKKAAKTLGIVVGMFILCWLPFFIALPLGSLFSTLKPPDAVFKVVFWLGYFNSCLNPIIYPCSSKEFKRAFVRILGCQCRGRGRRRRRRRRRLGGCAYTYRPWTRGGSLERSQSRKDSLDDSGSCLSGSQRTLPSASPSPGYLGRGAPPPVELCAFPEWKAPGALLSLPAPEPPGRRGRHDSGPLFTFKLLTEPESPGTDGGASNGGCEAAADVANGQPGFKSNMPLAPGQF

In order of rising Ki:
1. c1ccc2c(c1)CCCC2NC1=NCCO1 (stereo unspecified)  2.45 µM
2. CCC[C@H]1CCCCC1NC1=NCCO1 (stereo partly specified)  3.98 µM
3. c1ccc2c(c1)CCCC2NC1=NCCCO1 (stereo unspecified)  6.76 µM
4. C1COC(NC(C2CC2)C2CC2)=N1 [CHEBI:8862]  21.4 µM
5. C1CCCC(NC2=NCCO2)CC1  28.2 µM
6. C1COC(N2CCOCC2)=N1  1000 µM
